In ChEMBL document CHEMBL1201862, “PubChem BioAssay data set” (2004):
Active and inactive are the calls of the source.

Legend:
Procathepsin L = Procathepsin L (Homo sapiens, UniProt P07711)
Aspartyl aminopeptidase = biological target: T1, Aspartyl aminopeptidase (Plasmodium falciparum 3D7, UniProt Q8I2J3)
T1 sequence (Q8I2J3 whole entry): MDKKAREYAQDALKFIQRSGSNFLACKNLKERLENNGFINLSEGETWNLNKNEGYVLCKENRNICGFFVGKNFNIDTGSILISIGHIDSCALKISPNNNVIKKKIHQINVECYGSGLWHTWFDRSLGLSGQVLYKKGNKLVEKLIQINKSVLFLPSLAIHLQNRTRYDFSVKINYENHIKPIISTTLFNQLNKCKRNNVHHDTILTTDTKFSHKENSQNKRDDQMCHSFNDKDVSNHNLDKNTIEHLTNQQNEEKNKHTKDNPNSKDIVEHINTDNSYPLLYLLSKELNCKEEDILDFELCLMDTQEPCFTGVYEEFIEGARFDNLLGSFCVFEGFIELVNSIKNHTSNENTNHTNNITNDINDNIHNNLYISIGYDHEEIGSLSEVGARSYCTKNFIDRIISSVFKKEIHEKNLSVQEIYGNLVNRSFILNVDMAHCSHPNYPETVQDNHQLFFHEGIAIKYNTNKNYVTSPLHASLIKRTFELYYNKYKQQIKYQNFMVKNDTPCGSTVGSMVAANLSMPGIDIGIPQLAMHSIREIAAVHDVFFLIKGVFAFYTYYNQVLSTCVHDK

[1] = biological target: Latent membrane protein 1 (Human herpesvirus 4 (strain B95-8), UniProt P03230); assay: LMP1 TES1 pathway selectivity over dsRED control – imaging, HEK293T, dual-color eGFP/dsRED, cherry-picks, selectivity assay for LMP1 NF-kB inhibitor project, dose response (AID 588398); type: functional, cell-based
Latent membrane protein 1, sequence (P03230 whole entry): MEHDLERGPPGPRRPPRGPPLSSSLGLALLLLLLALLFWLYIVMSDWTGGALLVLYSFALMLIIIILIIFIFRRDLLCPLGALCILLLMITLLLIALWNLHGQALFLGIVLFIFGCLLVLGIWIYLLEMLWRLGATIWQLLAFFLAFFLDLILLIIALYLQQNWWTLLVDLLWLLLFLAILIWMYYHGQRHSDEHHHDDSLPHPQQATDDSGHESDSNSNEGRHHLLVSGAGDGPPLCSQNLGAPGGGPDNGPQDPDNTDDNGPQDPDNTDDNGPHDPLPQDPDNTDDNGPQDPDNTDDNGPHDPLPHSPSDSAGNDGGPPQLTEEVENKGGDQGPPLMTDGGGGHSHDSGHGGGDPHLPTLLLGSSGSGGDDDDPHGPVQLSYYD

Large T antigen = Large T antigen (Simian virus 40, UniProt P03070); type: functional, Betapolyomavirus macacae;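 note: Confirmatory-stage PubChem screen for compounds that inhibit SV40 T antigen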
Oxytocin receptor = Oxytocin receptor (Homo sapiens, UniProt P30559); assay: Fluorescence-based cell-based high throughput dose response assay for potentiators of Oxytocin Receptor (OXTR). [Related pubchem assays: 434985 (Confirmation screen (OXTR potentiators in triplicate)), 2481 (Summary (OXTR potentiators)), 2445 (Primary screen (OXTR potentiators in singlicate))]; type: functional
[2] = biological target: Luciferin 4-monooxygenase (Photinus pyralis, UniProt P08659); assay: inhibition of purified Photinus pyralis luciferase – biochemical, luminescence, dose response (AID 1891)
CAAX prenyl protease 2 [3] = biological target: CAAX prenyl protease 2 (Homo sapiens, UniProt Q9Y256); assay: inhibition of Ras-converting CAAX endoprotease – biochemical, plate reader, dry powder samples, dose response (AID 588848)
CAAX prenyl protease 2 [4] = biological target: CAAX prenyl protease 2 (Saccharomyces cerevisiae S288c, UniProt Q03530); type: biochemical
[5] = toxicity toward cultured mammalian cells – cell-based, plate reader, cherry-pick samples, cytotoxicity control, dose response (AID 504397); type: functional
[6] = Luminescence Cell-Based Dose Confirmation HTS to Identify Inhibitors of Platelet Dense Granule Release. [Related pubchem assays: 1663 (Primary HTS), 1678 (Summary of Project)]; type: functional
[7] = blockers of HIV-1 envelope-mediated cell-cell fusion – cherry-pick, dose response (AID 652057); type: functional, cell-based
[8] = HIV-1 AD8 envelope cell-cell fusion blockers – cherry-pick, dose response (AID 652062); type: functional, cell-based;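 note: luciferase signal from cell-cell fusion driven by HIV-1 clade B AD8 Env; potency is for inhibitors of fusion seen as a drop in luminescence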
[9] = blockers of HIV-1 ZM109 envelope-driven cell-cell fusion – HeLa effector, CEM target cells, luciferase, cherry-pick, dose response (AID 652058); type: functional, cell-based;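 note: luciferase signal from HIV-1 Env mediated cell-cell fusion of effector and target cells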
[10] = OVCAR-3 cell viability loss – plate reader, dry powder samples, PAX8 inhibitor project, dose response (AID 743044); type: functional, cell-based
[11] = PAX5 cellular inhibition readout – cell-based, plate reader, dry powder samples, selectivity assay for PAX8 inhibitor project, dose response (AID 743047); type: functional;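 note: HEK293 cells carrying a Pax5 driven CD19 promoter luciferase reporter; potency of inhibitors that lower reporter luminescence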
[12] = A2780 cell killing – plate reader, dry powder samples, cytotoxicity control, dose response (AID 743046); type: functional, cell-based
Paired box protein Pax-8 = Paired box protein Pax-8 (Homo sapiens, UniProt Q06710); assay: PAX8 transcriptional activity inhibition in RMG-I – RMG-I cells, luciferase, cherry-pick, dose response (AID 687027); type: functional, cell-based;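 note: luciferase reporter driven by Pax8 target thyroperoxidase promoter measured by SteadyGlo luminescence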
HEK293 [13] = assay: cells; type: functional, cell-based; settings: Homo sapiens
HEK293 [14] = assay: NOD2 signaling inhibitors in MDP-stimulated cells, cell-based, uHTS, luminescence (AID 2001); type: functional; settings: Homo sapiens
[15] = biological target: Nucleotide-binding oligomerization domain-containing protein 2 (Homo sapiens, UniProt Q9HC29); assay: inhibition of NOD2-driven NF-kB reporter – cell-based, luminescence, uHTS, HEK293 (AID 1566); type: functional
[16] = inhibitors acting on PAX2 in cells – cell-based, plate reader, dry powder samples, selectivity assay for PAX8 inhibitor project, dose response (AID 743048); type: functional;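 note: HEK293 cells carrying a WT1 promoter luciferase reporter driven by expressed Pax2; potency is for inhibition of Pax2 driven reporter signal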
[17] = OV-90 cell viability loss – plate reader, dry powder, SA8, PAX8 inhibitor project, dose response (AID 743149); type: functional, cell-based
INS1 = assay: INS-1E survival protection against cytokine death – cell-based, luminescence, retest, dose response (AID 449756); type: functional; settings: Rattus norvegicus;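 note: cell death triggered by IL-1 beta plus TNF-alpha plus IFN-gamma mixture; protective hits raise ATP signal compared with cytokine alone wells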
HEK293 [18] = assay: cells; type: functional, cell-based; settings: Homo sapiens; remark: listed apart in the source
HEK293 [19] = assay: cells; type: functional, cell-based; settings: Homo sapiens; remark: listed apart in the source
A-375 = assay: proliferation inhibition in MITF-low A375 cells – cell-based, cherry-pick samples, set 2, counter-screen for MITF modulator project, dose response (AID 540335); type: functional; settings: Homo sapiens
[20] = COV434 cell viability loss – plate reader, dry powder, SA7, cytotoxicity control for PAX8 inhibitor project, dose response (AID 743145); type: functional, cell-based
[21] = off-target signal loss in HeLa-CEM21 co-culture – HeLa F-luc CTL cells, cherry-picked, counter-screen for HIV-1 Env fusion inhibitor project, dose response (AID 652040); type: functional, cell-based;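 note: potency for signal decrease marking cytotoxic or nonspecific inhibition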
HEK293 [22] = assay: inhibition of NOD1-driven NF-kB reporter – cell-based, luminescence, uHTS, primary screen (AID 1578); type: functional; settings: Homo sapiens
[23] = PAX8-dependent cell viability loss – plate reader, dry powder, dose response (AID 743049); type: functional, cell-based
[24] = biological target: T2, Microphthalmia-associated transcription factor (Homo sapiens, UniProt O75030); assay: reducers of TRPM1 reporter luminescence, concentration series – cell-based, SK-MEL-5, cherry-picked, set 3, MITF inhibitor project, dose response (AID 493073); type: functional;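 note: SK-MEL-5 melanoma cells with luciferase driven by the MITF target TRPM1 promoter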
T2 sequence (O75030 whole entry): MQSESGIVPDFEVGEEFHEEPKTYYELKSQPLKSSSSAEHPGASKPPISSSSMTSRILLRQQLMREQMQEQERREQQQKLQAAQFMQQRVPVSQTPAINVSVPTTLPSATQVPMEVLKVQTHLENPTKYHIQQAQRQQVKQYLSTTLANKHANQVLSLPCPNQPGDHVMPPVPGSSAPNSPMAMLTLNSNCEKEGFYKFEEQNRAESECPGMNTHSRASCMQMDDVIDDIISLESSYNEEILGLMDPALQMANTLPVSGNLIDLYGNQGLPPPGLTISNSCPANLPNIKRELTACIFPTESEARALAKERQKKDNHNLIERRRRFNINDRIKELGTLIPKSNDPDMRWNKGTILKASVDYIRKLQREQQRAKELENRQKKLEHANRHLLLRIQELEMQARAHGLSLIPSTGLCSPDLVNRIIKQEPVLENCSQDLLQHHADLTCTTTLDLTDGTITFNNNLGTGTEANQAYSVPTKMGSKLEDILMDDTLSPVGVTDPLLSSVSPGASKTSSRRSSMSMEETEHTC

[25] = viability loss in CEM21 cells – cell-based, CellTiter-Glo luminescence, cherry-picked, cytotoxicity control for viral fusion inhibitor project, dose response (AID 652042); type: functional;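 note: potency for signal decrease meaning cytotoxicity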
[26] = biological target: Beta-2 adrenergic receptor (Homo sapiens, UniProt P07550); assay: ADRB2 activation measured by internalization – cell-based, FAP fluorogen, flow cytometry, cherry pick 1, dose response (AID 588763); type: functional
Beta-2 adrenergic receptor, sequence (P07550 whole entry): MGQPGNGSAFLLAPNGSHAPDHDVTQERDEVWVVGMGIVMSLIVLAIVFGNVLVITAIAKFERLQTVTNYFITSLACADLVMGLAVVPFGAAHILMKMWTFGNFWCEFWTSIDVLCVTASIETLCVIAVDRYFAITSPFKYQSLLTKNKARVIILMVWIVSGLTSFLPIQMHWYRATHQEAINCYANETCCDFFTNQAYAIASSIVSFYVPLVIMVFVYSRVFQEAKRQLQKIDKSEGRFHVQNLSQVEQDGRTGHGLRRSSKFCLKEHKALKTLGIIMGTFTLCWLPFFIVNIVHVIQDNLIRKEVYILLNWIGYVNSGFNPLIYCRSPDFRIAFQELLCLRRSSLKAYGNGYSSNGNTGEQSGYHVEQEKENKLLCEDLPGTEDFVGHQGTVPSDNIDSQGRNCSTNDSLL

Phospholipase D1 [27] = biological target: T3, Phospholipase D1 (Homo sapiens, UniProt Q13393); assay: PLD1 purified enzyme concentration response. [Related pubchem assays (depositor defined):AID588854]; type: functional
T3 sequence (Q13393 whole entry): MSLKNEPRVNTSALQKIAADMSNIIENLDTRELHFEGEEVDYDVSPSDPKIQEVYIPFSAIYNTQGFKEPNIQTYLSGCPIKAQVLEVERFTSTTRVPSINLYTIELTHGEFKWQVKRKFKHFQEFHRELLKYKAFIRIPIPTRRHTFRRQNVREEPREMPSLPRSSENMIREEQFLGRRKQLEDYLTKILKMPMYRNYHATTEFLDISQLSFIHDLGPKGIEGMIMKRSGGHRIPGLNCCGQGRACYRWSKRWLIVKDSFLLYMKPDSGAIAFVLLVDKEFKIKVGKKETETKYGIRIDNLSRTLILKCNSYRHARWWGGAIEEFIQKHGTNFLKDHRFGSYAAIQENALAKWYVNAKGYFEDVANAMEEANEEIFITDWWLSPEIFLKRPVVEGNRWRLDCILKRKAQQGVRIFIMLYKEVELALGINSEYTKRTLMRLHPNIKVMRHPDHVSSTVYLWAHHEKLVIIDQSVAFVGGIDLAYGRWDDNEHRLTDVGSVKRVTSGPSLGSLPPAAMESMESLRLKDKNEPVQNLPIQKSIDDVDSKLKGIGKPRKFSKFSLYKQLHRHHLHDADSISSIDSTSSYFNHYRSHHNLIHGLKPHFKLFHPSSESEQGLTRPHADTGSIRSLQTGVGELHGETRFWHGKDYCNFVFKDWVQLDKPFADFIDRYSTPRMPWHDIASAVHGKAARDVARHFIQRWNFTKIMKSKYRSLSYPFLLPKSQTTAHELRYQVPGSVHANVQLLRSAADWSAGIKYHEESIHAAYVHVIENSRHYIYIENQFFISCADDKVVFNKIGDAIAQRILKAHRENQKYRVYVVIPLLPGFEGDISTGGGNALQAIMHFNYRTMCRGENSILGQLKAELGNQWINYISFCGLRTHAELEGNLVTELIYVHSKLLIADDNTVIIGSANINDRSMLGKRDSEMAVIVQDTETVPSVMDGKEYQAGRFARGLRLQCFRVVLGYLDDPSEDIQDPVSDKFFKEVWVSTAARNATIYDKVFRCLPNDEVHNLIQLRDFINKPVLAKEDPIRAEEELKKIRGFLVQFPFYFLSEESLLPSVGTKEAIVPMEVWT

Phospholipase D2 [28] = biological target: T4, Phospholipase D2 (Homo sapiens, UniProt O14939); assay: PLD2 purified enzyme concentration response. [Related pubchem assays (depositor defined):AID588854]; type: functional
T4 sequence (O14939 whole entry): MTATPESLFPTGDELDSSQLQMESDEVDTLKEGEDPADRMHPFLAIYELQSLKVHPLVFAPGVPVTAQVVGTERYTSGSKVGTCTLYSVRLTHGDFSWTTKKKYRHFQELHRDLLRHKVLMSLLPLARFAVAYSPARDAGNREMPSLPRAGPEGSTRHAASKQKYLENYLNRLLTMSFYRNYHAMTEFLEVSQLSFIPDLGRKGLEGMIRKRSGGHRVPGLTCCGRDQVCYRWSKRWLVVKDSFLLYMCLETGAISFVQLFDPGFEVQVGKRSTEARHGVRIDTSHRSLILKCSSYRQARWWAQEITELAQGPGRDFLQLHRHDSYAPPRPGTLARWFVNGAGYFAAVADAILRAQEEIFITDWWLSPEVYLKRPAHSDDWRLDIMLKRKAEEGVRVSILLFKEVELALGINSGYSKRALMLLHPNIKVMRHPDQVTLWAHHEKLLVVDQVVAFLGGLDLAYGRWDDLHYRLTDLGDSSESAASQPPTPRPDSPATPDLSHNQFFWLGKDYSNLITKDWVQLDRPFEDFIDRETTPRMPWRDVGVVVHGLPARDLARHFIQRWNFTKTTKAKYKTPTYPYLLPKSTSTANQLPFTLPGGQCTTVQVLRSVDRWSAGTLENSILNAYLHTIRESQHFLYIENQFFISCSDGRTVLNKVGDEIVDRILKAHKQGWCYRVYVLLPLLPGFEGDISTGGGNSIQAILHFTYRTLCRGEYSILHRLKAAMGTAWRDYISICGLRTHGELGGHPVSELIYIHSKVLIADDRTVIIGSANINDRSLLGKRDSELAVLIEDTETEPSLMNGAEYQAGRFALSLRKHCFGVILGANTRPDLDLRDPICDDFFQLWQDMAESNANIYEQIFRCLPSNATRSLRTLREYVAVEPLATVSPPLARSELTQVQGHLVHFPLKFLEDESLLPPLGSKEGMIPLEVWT

Phospholipase D2 [29] = biological target: T4, Phospholipase D2; assay: cellular phospholipase D2 inhibition IC50 – cell-based, dose response (AID 602147); type: functional;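 note: cellular assay in HEK293 cells overexpressing GFP-tagged PLD2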
Phospholipase D1 [30] = biological target: T3, Phospholipase D1; assay: cellular phospholipase D1 inhibition IC50 – cell-based, dose response (AID 602151); type: functional;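 note: cellular PLD1 assay in Calu-1 cells stimulated with PMA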
Hexokinase HKDC1 = Hexokinase HKDC1 (Homo sapiens, UniProt Q2TB90); assay: SAR analysis of small molecule inhibitors of hexokinase domain containing I (HKDC1). [Related pubchem assays (depositor defined):AID493160, AID493190]; type: functional
Hexokinase HKDC1, sequence (Q2TB90 whole entry, the tested form may be a part): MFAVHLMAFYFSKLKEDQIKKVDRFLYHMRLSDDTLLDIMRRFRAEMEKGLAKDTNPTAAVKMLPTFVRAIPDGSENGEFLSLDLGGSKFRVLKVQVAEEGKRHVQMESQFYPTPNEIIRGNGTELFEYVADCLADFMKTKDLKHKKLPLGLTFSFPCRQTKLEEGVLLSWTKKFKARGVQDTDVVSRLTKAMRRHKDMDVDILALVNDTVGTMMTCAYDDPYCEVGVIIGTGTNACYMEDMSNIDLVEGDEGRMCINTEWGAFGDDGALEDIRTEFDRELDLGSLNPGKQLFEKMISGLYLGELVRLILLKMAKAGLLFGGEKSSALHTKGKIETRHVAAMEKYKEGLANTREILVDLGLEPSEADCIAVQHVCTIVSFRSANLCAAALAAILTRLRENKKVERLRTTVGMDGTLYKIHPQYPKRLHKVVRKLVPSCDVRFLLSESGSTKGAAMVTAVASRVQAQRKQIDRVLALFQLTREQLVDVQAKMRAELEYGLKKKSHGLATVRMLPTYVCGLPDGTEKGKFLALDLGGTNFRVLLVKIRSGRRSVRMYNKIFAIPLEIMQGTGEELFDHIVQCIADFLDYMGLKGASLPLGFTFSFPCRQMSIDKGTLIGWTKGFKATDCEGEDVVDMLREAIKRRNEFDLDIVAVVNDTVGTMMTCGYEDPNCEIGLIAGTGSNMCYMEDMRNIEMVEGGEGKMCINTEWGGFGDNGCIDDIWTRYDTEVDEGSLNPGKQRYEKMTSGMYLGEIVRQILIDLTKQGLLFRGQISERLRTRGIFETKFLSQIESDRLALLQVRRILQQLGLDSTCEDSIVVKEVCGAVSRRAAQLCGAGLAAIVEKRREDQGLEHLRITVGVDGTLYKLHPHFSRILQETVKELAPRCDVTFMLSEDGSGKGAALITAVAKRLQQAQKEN

Hexokinase-1 = Hexokinase-1 (Homo sapiens, UniProt P19367); assay: SAR analysis of small molecule inhibitors of hexokinase domain containing I (HKDC1) in the hexokinase 1 selectivity assay. [Related pubchem assays (depositor defined):AID493160, AID493190]; type: functional
Hexokinase-1, sequence (P19367 whole entry, the tested form may be a part): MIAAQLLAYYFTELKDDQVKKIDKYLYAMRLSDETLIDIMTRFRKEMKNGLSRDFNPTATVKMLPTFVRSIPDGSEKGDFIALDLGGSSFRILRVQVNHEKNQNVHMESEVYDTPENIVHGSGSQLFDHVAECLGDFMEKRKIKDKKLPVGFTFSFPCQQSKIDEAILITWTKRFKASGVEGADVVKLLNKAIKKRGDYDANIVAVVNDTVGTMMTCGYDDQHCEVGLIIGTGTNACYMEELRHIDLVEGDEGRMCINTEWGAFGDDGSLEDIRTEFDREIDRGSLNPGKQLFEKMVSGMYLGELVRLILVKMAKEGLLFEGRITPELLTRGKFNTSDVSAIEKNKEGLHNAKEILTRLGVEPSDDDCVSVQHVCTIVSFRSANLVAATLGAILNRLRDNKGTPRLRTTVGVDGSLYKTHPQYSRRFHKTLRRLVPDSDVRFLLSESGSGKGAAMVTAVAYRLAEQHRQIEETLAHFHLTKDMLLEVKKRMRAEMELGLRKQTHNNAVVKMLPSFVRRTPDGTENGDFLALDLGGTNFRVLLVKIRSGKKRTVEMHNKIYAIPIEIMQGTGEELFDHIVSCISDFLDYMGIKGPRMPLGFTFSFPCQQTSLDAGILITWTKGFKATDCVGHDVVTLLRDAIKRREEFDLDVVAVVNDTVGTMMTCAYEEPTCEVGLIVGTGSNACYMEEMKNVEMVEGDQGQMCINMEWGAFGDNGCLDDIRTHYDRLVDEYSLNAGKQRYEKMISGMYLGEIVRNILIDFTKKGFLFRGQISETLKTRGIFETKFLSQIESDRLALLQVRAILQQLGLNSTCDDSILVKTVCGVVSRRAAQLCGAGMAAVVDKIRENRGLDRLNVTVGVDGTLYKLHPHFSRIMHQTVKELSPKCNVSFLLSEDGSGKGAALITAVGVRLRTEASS

Procathepsin L, sequence (P07711 whole entry): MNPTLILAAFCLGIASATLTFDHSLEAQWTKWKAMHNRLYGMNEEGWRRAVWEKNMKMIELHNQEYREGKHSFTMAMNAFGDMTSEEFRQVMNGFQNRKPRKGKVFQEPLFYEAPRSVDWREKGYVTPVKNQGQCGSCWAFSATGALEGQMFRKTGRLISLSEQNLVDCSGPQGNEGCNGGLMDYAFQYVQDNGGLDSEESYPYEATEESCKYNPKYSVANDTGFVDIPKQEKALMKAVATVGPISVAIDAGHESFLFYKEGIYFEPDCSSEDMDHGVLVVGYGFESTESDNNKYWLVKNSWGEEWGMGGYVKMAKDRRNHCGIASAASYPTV

In the case of `O=c1c(O)c(-c2ccc(O)c(O)c2)oc2cc(O)cc(O)c12` [QUERCETIN DIHYDRATE], the IC50 (Procathepsin L) is reported as > 59.6 µM (not active), the IC50 (Aspartyl aminopeptidase) is reported as 0.385 µM (active) and the AC50 [1] is reported as 233 µM (active). The IC50 (Large T antigen) was 16.1 µM (active) and the EC50 (Oxytocin receptor) was > 29.9 µM (not active).
With `O=C(COC(=O)/C=C/c1cn(-c2ccccc2)nc1-c1ccc2c(c1)OCCO2)NC1CCS(=O)(=O)C1` (centres undefined) the EC50 [2] was > 112 µM (not active), the AC50 (CAAX prenyl protease 2 [3]) was 17.4 µM (active) and the AC50 (CAAX prenyl protease 2 [4]) was 0.542 µM (active). For the same molecule, the AC50 [5] was 89.2 µM (active) and the EC50 [6] was > 112 µM (not active).
In the case of `CCSCCc1nnc(NC(=O)Nc2cccc(C(F)(F)F)c2)s1`, the AC50 [7] is reported as 5.97 µM (active), the AC50 [8] is reported as 7.84 µM (active) and the AC50 [9] is reported as 4.07 µM (active). For the same molecule, the AC50 [10] was 27.4 µM (active), the AC50 [11] was 5.02 µM (active) and the AC50 [12] was 8.04 µM (active). For the same molecule, the AC50 (Paired box protein Pax-8) was 7.31 µM (active), the IC50 (HEK293 [13]) was > 20 µM (inactive) and the IC50 (HEK293 [14]) was 2.68 µM (active). The EC50 [15] was 15 µM (active), the AC50 [16] was 5.05 µM (active) and the AC50 [17] was > 100 µM (inactive). The AC50 (INS1) was 3.91 µM (active), the IC50 (HEK293 [18]) was 2.57 µM (active) and the IC50 (HEK293 [19]) was 9.13 µM (active). For the same molecule, the AC50 (A-375) was 6.62 µM (active), the AC50 [20] was 35.2 µM (active) and the AC50 [21] was 3.56 µM (active). The EC50 (HEK293 [22]) was 2.16 µM (active), the AC50 [23] was 23.1 µM (active) and the AC50 [24] was 8.99 µM (active). For the same molecule, the AC50 [25] was 5.2 µM (active).
For `O=C(NCCCn1ccnc1)C1CCCN(S(=O)(=O)c2cc(Cl)ccc2Cl)C1` (centres undefined), the EC50 [26] was 0.999 µM (active).
For `O=C(NCCN1CCC2(CC1)C(=O)NCN2c1cccc(F)c1)c1cnc2ccccc2c1`, the IC50 (Phospholipase D1 [27]) was 2.8 µM (active) and the IC50 (Phospholipase D2 [28]) was 0.13 µM (active).
In the case of `CN1CN(c2ccccc2)C2(CCN(CCNC(=O)c3ccc4ccccc4c3)CC2)C1=O`, the IC50 (Phospholipase D2 [29]) is reported as 20 µM (active) and the IC50 (Phospholipase D1 [30]) is reported as 2.8 µM (active).
In the case of `COc1ccc(/C=C/c2nc3ccccc3c(=O)n2Cc2ccccc2)cc1`, the IC50 (Hexokinase HKDC1) is reported as > 80 µM (inactive) and the IC50 (Hexokinase-1) is reported as > 80 µM (inactive).
